From patent US4372970A, “Benzofuran acetic acid esters and their arthropocidal compositions” (Shell Internationale Research Maatschappij B.V., priority 1979, dated 1983)

Legend:
insects = conditions: about times that of natural pyrethrum; cited from earlier work
[1] = tested on: lettuce, cucumber, dwarf French beans, tomato or broad bean; test: Phytotoxicity on foliage; assay type: in vivo; conditions: 100 p.p.m. on foliage
Excerpt: Phytotoxicity is an important feature when the insecticide is applied to foliage.

For `CC(C)=CC1C(C(=O)OCc2coc(Cc3ccccc3)c2)C1(C)C` (centres unmarked) [Resmethrin, 5-benzyl-3-furylmethylchrysanthemumate], the “activity relative to natural pyrethrum” value (insects) is listed as “about 20 times”.

In the case of `CC(C)C(C(=O)OC(C#N)c1cccc(Oc2ccccc2)c1)c1ccc(Cl)cc1` (stereo not drawn) [fenvalerate, α-cyano-3-phenoxy-benzyl 2-(4-chlorophenyl)-3-methylbutyrate], the phytotoxicity [1] is reported as “phytotoxicity was observed”.
